From the OligoGym collection come the findings set out here.

HELM strings list units from the 5' end as sugar, base in round brackets, then linkage (d deoxyribose, r ribose, m 2'-O-methyl, p phosphodiester). Strings are as the collection lists them; they lack the last nucleoside at the 3' end of the tested compound. [moe] = 2'-O-(2-methoxyethyl) (MOE); [sp] = phosphorothioate linkage; [m5C] = 5-methylcytosine

The target of this data set is ATXN3. In words: mouse, dose not given. The conditions noted are these: ASO.

In turn, “RNA1{[moe](A)[sp].[moe](A)p.[moe](T)p.[moe](G)p.[moe]([m5C])[sp].d(T)[sp].d([m5C])[sp].d(A)[sp].d(T)[sp].d(T)[sp].d(T)[sp].d(A)[sp].d(T)[sp].d(T)[sp].d([m5C])[sp].[moe](T)p.[moe]([m5C])p.[moe](A)[sp].[moe](A)}$$$$ (last 3' nucleoside missing)” came in with a 3 h FOB score of 2 score 0-7.
The result for “RNA1{[moe](A)[sp].[moe](A)p.[moe](T)p.[moe](G)p.[moe]([m5C])p.d(A)[sp].d(T)[sp].d(A)[sp].d(T)[sp].d(T)[sp].d(G)[sp].d(G)[sp].d(T)[sp].d(T)[sp].d(T)[sp].[moe](T)p.[moe]([m5C])p.[moe](T)[sp].[moe]([m5C])}$$$$ (last 3' nucleoside missing)” reads 4 score 0-7; that for “RNA1{[moe](A)[sp].[moe](A)p.[moe](T)p.[moe](T)p.[moe]([m5C])[sp].d(T)[sp].d(T)[sp].d(G)[sp].d([m5C])[sp].d(T)[sp].d(T)[sp].d([m5C])[sp].d(A)[sp].d(A)[sp].d([m5C])[sp].[moe]([m5C])p.[moe](A)p.[moe](T)[sp].[moe]([m5C])}$$$$ (last 3' nucleoside missing)”, 1.25 score 0-7; that for “RNA1{[moe](A)[sp].[moe](G)[sp].[moe]([m5C])p.[moe]([m5C])p.[moe](A)[sp].d(A)[sp].d(T)[sp].d(A)[sp].d(T)[sp].d(T)[sp].d(T)[sp].d(A)[sp].d(T)[sp].d(A)[sp].d(G)[sp].[moe](G)p.[moe](T)p.[moe](G)[sp].[moe]([m5C])}$$$$ (last 3' nucleoside missing)”, 1 score 0-7.
The result for “RNA1{[moe](A)[sp].[moe](G)p.[moe](T)p.[moe](G)p.[moe]([m5C])[sp].d(T)[sp].d(A)[sp].d(T)[sp].d(A)[sp].d(A)[sp].d(T)[sp].d(T)[sp].d([m5C])[sp].d(T)[sp].d(T)[sp].[moe](G)p.[moe]([m5C])p.[moe](T)[sp].[moe](T)}$$$$ (last 3' nucleoside missing)” reads 0.25 score 0-7.
In turn, “RNA1{[moe](A)[sp].[moe](G)p.[moe](T)p.[moe](G)p.[moe]([m5C])[sp].d(T)[sp].d(U)[sp].d(T)[sp].d(T)[sp].d([m5C])[sp].d(A)[sp].d(T)[sp].d(A)[sp].d([m5C])[sp].d([m5C])[sp].[moe](A)p.[moe](G)p.[moe](G)[sp].[moe](T)}$$$$ (last 3' nucleoside missing)” displayed a 3 h FOB score of 0.75 score 0-7.
The result for “RNA1{[moe](A)[sp].[moe](G)p.[moe](T)p.[moe](G)p.[moe]([m5C])p.[moe](T)p.d(T)[sp].d(T)[sp].d(T)[sp].d([m5C])[sp].d(A)[sp].d(T)[sp].d(A)[sp].d([m5C])[sp].d([m5C])[sp].d(A)[sp].[moe](G)p.[moe](G)[sp].[moe](T)}$$$$ (last 3' nucleoside missing)” reads 1 score 0-7.
The result for “RNA1{[moe](A)[sp].[moe](G)p.[moe]([m5C])p.[moe]([m5C])p.[moe](A)[sp].d(A)[sp].d(T)[sp].d(A)[sp].d(T)[sp].d(T)[sp].d(T)[sp].d(A)[sp].d(T)[sp].d(A)[sp].d(G)[sp].[moe](G)p.[moe](T)p.[moe](G)[sp].[moe]([m5C])}$$$$ (last 3' nucleoside missing)” reads 1 score 0-7; that for “RNA1{[moe](A)[sp].[moe](G)p.[moe]([m5C])p.[moe]([m5C])p.[moe](A)p.d(A)[sp].d(T)[sp].d(A)[sp].d(T)[sp].d(T)[sp].d(T)[sp].d(A)[sp].d(T)[sp].d(A)[sp].d(G)[sp].[moe](G)p.[moe](T)p.[moe](G)[sp].[moe]([m5C])}$$$$ (last 3' nucleoside missing)”, 1 score 0-7.
Then “RNA1{[moe](A)[sp].[moe](T)p.[moe](G)[sp].[moe](T)[sp].[moe](T)[sp].d(A)[sp].d(A)[sp].d(T)[sp].d(A)[sp].d([m5C])[sp].d(T)[sp].d(T)[sp].d(T)[sp].d(T)[sp].d(T)[sp].[moe]([m5C])[sp].[moe]([m5C])p.[moe](A)[sp].[moe](G)}$$$$ (last 3' nucleoside missing)”, with 0.25 score 0-7.
As for “RNA1{[moe](A)[sp].[moe](T)p.[moe](G)p.[moe](A)p.[moe](G)[sp].d([m5C])[sp].d([m5C])[sp].d(A)[sp].d(A)[sp].d(T)[sp].d(A)[sp].d(T)[sp].d(T)[sp].d(T)[sp].d(A)[sp].[moe](T)p.[moe](A)p.[moe](G)[sp].[moe](G)}$$$$ (last 3' nucleoside missing)”, the 3 h FOB score stood at 1 score 0-7.
The result for “RNA1{[moe](A)[sp].[moe](T)p.[moe](G)p.[moe](T)p.[moe](T)[sp].d([m5C])[sp].d(A)[sp].d(T)[sp].d(A)[sp].d(T)[sp].d([m5C])[sp].d([m5C])[sp].d(T)[sp].d(T)[sp].d(T)[sp].[moe](A)p.[moe](A)p.[moe]([m5C])[sp].[moe]([m5C])}$$$$ (last 3' nucleoside missing)” reads 0 score 0-7.
Then “RNA1{[moe](A)[sp].[moe](T)p.[moe](G)p.[moe](T)p.[moe](T)p.[moe]([m5C])p.d(A)[sp].d(T)[sp].d(A)[sp].d(T)[sp].d([m5C])[sp].d([m5C])[sp].d(T)[sp].d(T)[sp].d(T)[sp].d(A)[sp].[moe](A)p.[moe]([m5C])[sp].[moe]([m5C])}$$$$ (last 3' nucleoside missing)”, with 0 score 0-7; and “RNA1{[moe](A)[sp].[moe](T)p.[moe](G)p.[moe]([m5C])p.[moe](T)[sp].d([m5C])[sp].d(A)[sp].d(T)[sp].d(T)[sp].d(T)[sp].d(A)[sp].d(T)[sp].d(T)[sp].d([m5C])[sp].d(T)[sp].[moe]([m5C])p.[moe](A)p.[moe](A)[sp].[moe](G)}$$$$ (last 3' nucleoside missing)”, with 0 score 0-7; and “RNA1{[moe](A)[sp].[moe](T)p.[moe](T)p.[moe](T)p.[moe](T)[sp].d([m5C])[sp].d(A)[sp].d(T)[sp].d(G)[sp].d(T)[sp].d(T)[sp].d([m5C])[sp].d([m5C])[sp].d(A)[sp].d(G)[sp].[moe](A)p.[moe](T)p.[moe]([m5C])[sp].[moe](A)}$$$$ (last 3' nucleoside missing)”, with 1 score 0-7.
Then “RNA1{[moe](A)[sp].[moe](T)p.[moe](T)p.[moe]([m5C])p.[moe](T)[sp].d(T)[sp].d(G)[sp].d([m5C])[sp].d(T)[sp].d(T)[sp].d([m5C])[sp].d(A)[sp].d(A)[sp].d([m5C])[sp].d([m5C])[sp].[moe](A)p.[moe](T)p.[moe]([m5C])[sp].[moe](A)}$$$$ (last 3' nucleoside missing)”, with 0.375 score 0-7; and “RNA1{[moe](A)[sp].[moe](T)p.[moe]([m5C])p.[moe](A)p.[moe]([m5C])[sp].d(T)[sp].d(G)[sp].d([m5C])[sp].d(A)[sp].d([m5C])[sp].d(A)[sp].d([m5C])[sp].d(T)[sp].d(T)[sp].d(T)[sp].[moe]([m5C])p.[moe]([m5C])p.[moe](T)[sp].[moe]([m5C])}$$$$ (last 3' nucleoside missing)”, with 0 score 0-7.
“RNA1{[moe](A)[sp].[moe]([m5C])p.[moe](T)p.[moe](A)p.[moe]([m5C])[sp].d([m5C])[sp].d(T)[sp].d(T)[sp].d(G)[sp].d([m5C])[sp].d(A)[sp].d(T)[sp].d(A)[sp].d([m5C])[sp].d(T)[sp].[moe](T)p.[moe](A)p.[moe](G)[sp].[moe]([m5C])}$$$$ (last 3' nucleoside missing)” showed a 3 h FOB score of 1.12 score 0-7.
The result for “RNA1{[moe](A)[sp].[moe]([m5C])p.[moe](T)p.[moe](G)p.[moe](G)[sp].d(T)[sp].d([m5C])[sp].d(A)[sp].d(G)[sp].d(T)[sp].d(T)[sp].d(T)[sp].d([m5C])[sp].d([m5C])[sp].d(T)[sp].[moe](A)p.[moe](A)p.[moe](T)[sp].[moe](T)}$$$$ (last 3' nucleoside missing)” reads 0 score 0-7.
The result for “RNA1{[moe](A)[sp].[moe]([m5C])p.[moe](T)p.[moe](G)p.[moe]([m5C])[sp].d(A)[sp].d([m5C])[sp].d(A)[sp].d([m5C])[sp].d(T)[sp].d(T)[sp].d(T)[sp].d([m5C])[sp].d([m5C])[sp].d(T)[sp].[moe]([m5C])p.[moe]([m5C])p.[moe](T)[sp].[moe]([m5C])}$$$$ (last 3' nucleoside missing)” reads 0 score 0-7; that for “RNA1{[moe](A)[sp].[moe]([m5C])p.[moe]([m5C])p.[moe](A)p.[moe](T)[sp].d([m5C])[sp].d(T)[sp].d(T)[sp].d(T)[sp].d(G)[sp].d(A)[sp].d([m5C])[sp].d(A)[sp].d(A)[sp].d(G)[sp].[moe]([m5C])p.[moe](T)p.[moe](A)[sp].[moe](T)}$$$$ (last 3' nucleoside missing)”, 2.75 score 0-7; that for “RNA1{[moe](A)[sp].[moe]([m5C])p.[moe]([m5C])p.[moe]([m5C])p.[moe](A)[sp].d(A)[sp].d(T)[sp].d(A)[sp].d(A)[sp].d(T)[sp].d([m5C])[sp].d(T)[sp].d(G)[sp].d(A)[sp].d([m5C])[sp].[moe](A)p.[moe](T)p.[moe]([m5C])[sp].[moe]([m5C])}$$$$ (last 3' nucleoside missing)”, 0 score 0-7.
The result for “RNA1{[moe](G)[sp].[moe](G)p.[moe](T)p.[moe](T)p.[moe](T)[sp].d(T)[sp].d([m5C])[sp].d(T)[sp].d([m5C])[sp].d(A)[sp].d(T)[sp].d(T)[sp].d(T)[sp].d(T)[sp].d(T)[sp].[moe](A)p.[moe](T)p.[moe](A)[sp].[moe](T)}$$$$ (last 3' nucleoside missing)” reads 2.25 score 0-7.
The substance “RNA1{[moe](G)[sp].[moe](G)p.[moe](T)p.[moe]([m5C])p.[moe](A)p.[moe](G)p.d(T)[sp].d(T)[sp].d(T)[sp].d([m5C])[sp].d([m5C])[sp].d(T)[sp].d(A)[sp].d(A)[sp].d(T)[sp].d(T)[sp].[moe](T)p.[moe](T)[sp].[moe](A)}$$$$ (last 3' nucleoside missing)” showed a 3 h FOB score of 1 score 0-7.
The result for “RNA1{[moe](G)[sp].[moe](G)p.[moe]([m5C])p.[moe](A)p.[moe]([m5C])p.[moe](A)p.d(T)[sp].d(T)[sp].d(T)[sp].d(T)[sp].d(T)[sp].d(T)[sp].d(A)[sp].d(T)[sp].d(A)[sp].d(G)[sp].[moe](A)p.[moe](G)[sp].[moe](T)}$$$$ (last 3' nucleoside missing)” reads 1 score 0-7.
